The first test addresses T1, HIV protease (Human immunodeficiency virus type 1 group M subtype B, UniProt P04585).
T1 construct: A third viral enzyme known as protease then cleaves the polyproteins
Put plainly: Enzymatic Assay for Determining the Inhibition Constant (Ki) of Synthetic Compounds Targeting the HIV Protease (fluorometric FRET assay). Type of test: biochemical.
Conditions: not given
The gist of the method: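 Fluorometric FRET assay following protease cleavage of an EDANS/DABCYL-labelled substrate. Initial velocities without (Vo) and with inhibitor (Vi) measured; Ki derived from the Henderson equation using inhibitor and substrate concentrations and Km.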
For the compound `Cc1ccc(S(=O)(=O)N(CC(C)C)[C@@H](CCCCNC(=O)[C@H](CC(N)=O)NS(=O)(=O)c2ccccc2)C(=O)O)cc1` [Example 25], the Ki came out at 5.3 nM.
On the same count and under the same terms, the figure for `CC(=O)N[C@@H](Cc1c[nH]c2ccccc12)C(=O)NCCCC[C@@H](CO)N(CC(C)C)S(=O)(=O)c1ccc(N)cc1` [Example 168, (2S,2′S) 2-N-(4-Aminobenzenesulfonyl)-2-N-isobutyl-6-N-(N′α-acetyl-S-tryptophanyl)-2,6-diaminohexanol] is 3.8 nM; for `CC(C)CN([C@H](CO)CCCCNC(=O)[C@H](Cc1ccccc1)NS(=O)(=O)c1ccc([N+](=O)[O-])cc1)S(=O)(=O)c1ccc(N)cc1` [Example 194, (2S,2′S) 2-N-(4-Aminobenzenesulfonyl)-2-N-isobutyl-6-N-[N′α-(4-nitrobenzenesulfonyl)-S-phenylalanyl]-2,6-diaminohexanol] it is 85 nM.
`CC(C)CN(C(CO)CCCCNC(=O)C(Cc1c[nH]c2ccccc12)NC(=O)c1ccccc1)S(=O)(=O)c1ccc(N)cc1` [Example 186, (2S,2′S) 2-N-(4-Aminobenzenesulfonyl)-2-N-isobutyl-6-N-(N′α-benzoyl-S-tryptophanyl)-2,6-diaminohexanol] returned a Ki of 1.7 nM.
`Cc1ccc(S(=O)(=O)N(CC(C)C)[C@@H](CCCCNC(=O)[C@H](Cc2ccccc2)NS(=O)(=O)c2ccc([N+](=O)[O-])cc2)C(=O)O)cc1` [Example 10, Nα-Isobutyl-Nα-(4-methylbenzenesulfonyl)-Nε-[N′α-(4-nitrobenzenesulfonyl)-L-phenylalanyl]-L-lysine] returned a Ki of 18 nM.
Same read-out and setting: the figure for `Cc1ccc(S(=O)(=O)N(CC(C)C)[C@H](CO)CCCCNC(=O)[C@H](Cc2ccccc2)NS(=O)(=O)c2ccccc2)cc1` [Example 123, (2S,2′S) 2-N-Isobutyl-2-N-(4-methylbenzenesulfonyl)-6-N-(N′α-benzenesulfonyl-S-phenylalanyl)-2,6-diaminohexanol] is 14 nM; for `Cc1ccc(S(=O)(=O)N[C@@H](Cc2cccs2)C(=O)NCCCC[C@@H](C(=O)O)N(CC(C)C)S(=O)(=O)c2ccc(C)cc2)cc1` [Example 35, Nα-Isobutyl-Nα-(4-methylbenzenesulfonyl)-Nε-[N′α-(4-methylbenzenesulfonyl)-L-2-thiophenylalanyl]-L-lysine] it is 21 nM; for `Cc1ccc(S(=O)(=O)N[C@@H](Cc2ccccc2)C(=S)NCCCC[C@@H](C(=O)O)N(CC(C)C)S(=O)(=O)c2ccc(C)cc2)cc1` [Example 72, Nα-Isobutyl-Nα-(4-methylbenzenesulfonyl)-Nε-[N′α-(4-methylbenzenesulfonyl)-L-thiophenylalanyl]-L-lysine] it is 33 nM.
The same measure, in the same setting: as for `CC(C)CN([C@H](CO)CCCCNC(=O)[C@H](Cc1c[nH]c2ccccc12)NS(=O)(=O)c1cccs1)S(=O)(=O)c1ccc(N)cc1` [Example 166, (2S,2′S) 2-N-(4-Aminobenzenesulfonyl)-2-N-isobutyl-6-N-[N′α-(2-thiophenesulfonyl)-S-tryptophanyl]-2,6-diaminohexanol], the figure is 1 nM; as for `Cc1ccc(S(=O)(=O)N(CC(C)C)[C@H](CO)CCCCNC(=O)CN(Cc2ccccc2)c2ccccc2)cc1` [Example 156, (2S) 2-N-Isobutyl-2-N-(4-methylbenzenesulfonyl)-6-N-(N′α-benzyl-N′α-phenylglycyl)-2,6-diaminohexanol], 7.6 nM.
In turn, `Cc1ccc(S(=O)(=O)N(CC(C)C)[C@@H](CCCCNC(=O)[C@H](Cc2c[nH]c3ccccc23)NC(=O)C(C)(C)C)C(=O)O)cc1` [Example 100, Nα-Isobutyl-Nα-(4-methylbenzenesulfonyl)-Nε-(N′α-pivaloyl-L-tryptophanyl)-L-lysine] had a Ki of 0.388 nM.
Same read-out and setting: as for `Cc1ccc(S(=O)(=O)N(CC(C)C)[C@@H](CCCCNC(=O)[C@H](Cc2ccccc2)NS(=O)(=O)c2cccs2)C(N)=O)cc1` [Example 58, Nα-Isobutyl-Nα-(4-methylbenzenesulfonyl)-Nε-[N′α-(2-thiophenesulfonyl)-L-phenylalanyl]-L-lysinamide], the figure is 5.2 nM; as for `Cc1ccc(S(=O)(=O)N[C@@H](Cc2ccccc2)C(=O)NCCCC[C@@H](C(=O)O)N(CC(C)C)S(=O)(=O)c2ccc(N)cc2)cc1` [Example 201, Nα-(4-Aminobenzenesulfonyl)-Nα-isobutyl-Nε-[N′α-(4-methylbenzenesulfonyl)-L-phenylalanyl]-L-lysine], 4.1 nM; as for `Cc1ccc(S(=O)(=O)N(CC(C)C)[C@@H](CCCCNC(=O)[C@@H](N)Cc2c[nH]c3ccccc23)C(=O)O)cc1` [Example 93, Nα-Isobutyl-Nα-(4-methylbenzenesulfonyl)-Nε-(L-tryptophanyl)-L-lysine], 2.1 nM.
Same read-out and setting: as for `Cc1ccc(S(=O)(=O)N(CC(C)C)[C@@H](CCCCNC(=O)[C@@H](N)Cc2cn(Cc3ccccc3)cn2)C(=O)O)cc1` [Example 92, Nα-Isobutyl-Nα-(4-methylbenzenesulfonyl)-Nε-(Nτ-benzyl-L-histidinyl)-L-lysine], the figure is over 300 nM.
On the same count and under the same terms, as for `Cc1ccc(S(=O)(=O)NC(Cc2c[nH]c3ccccc23)C(=O)NCCCCC(C(=O)OCC(O)CO)N(CC(C)C)S(=O)(=O)c2ccc(C)cc2)cc1` [Example 45, Nα-Isobutyl-Nα-(4-methylbenzenesulfonyl)-Nε-[N′α-(4-methylbenzenesulfonyl)-L-tryptophanyl]-L-lysine 2,3-Dihydroxypropyl Ester], the figure is over 300 nM; as for `COC(=O)[C@H](CCCCNC(=S)[C@H](Cc1ccccc1)NS(=O)(=O)c1ccc(C)cc1)N(CC(C)C)S(=O)(=O)c1ccc(C)cc1` [Example 71, Nα-Isobutyl-Nα-(4-methylbenzenesulfonyl)-Nε-[N′α-(4-methylbenzenesulfonyl)-L-thiophenylalanyl]-L-lysine Methyl Ester], over 300 nM.
In turn, `Cc1ccc(S(=O)(=O)N(CC(C)C)[C@@H](CCCCNC(=O)[C@H](Cc2ccccc2)NC(=O)OCc2ccccc2)C(=O)O)cc1` [Example 31, Nα-Isobutyl-Nα-(4-methylbenzenesulfonyl)-Nε-(N′α-benzyloxycarbonyl-L-phenylalanyl)-L-lysine] yielded an inhibitory constant (Ki) of 2.3 nM.
Same read-out and setting: the figure for `Cc1ccc(S(=O)(=O)N(CC(C)C)[C@@H](CCCCNC(=O)[C@@H](N)Cc2ccc(OCc3ccccc3)cc2)C(=O)O)cc1` [Example 94, Nα-Isobutyl-Nα-(4-methylbenzenesulfonyl)-Nε-(O-benzyl-L-tyrosyl)-L-lysine] is 177 nM; for `COc1ccc(CN(CC(=O)NCCCC[C@@H](C(=O)O)N(CC(C)C)S(=O)(=O)c2ccc(C)cc2)c2ccccc2)cc1` [Example 174, Nα-Isobutyl-Nα-(4-methylbenzenesulfonyl)-Nε-[N′α-(4-methoxybenzyl)-N′α-phenylglycyl]-L-lysine] it is 1.4 nM.
With `Cc1ccc(S(=O)(=O)N(CC(C)C)[C@@H](CCCCNC(=O)[C@H](Cc2ccccc2)NS(=O)(=O)c2cccs2)C(=O)O)cc1` [Example 24, Nα-Isobutyl-Nα-(4-methylbenzenesulfonyl)-Nε-[N′α-(2-thiophenesulfonyl)-L-phenylalanyl]-L-lysine], the Ki is 0.506 nM.
Take `Cc1ccc(S(=O)(=O)N(CC(C)C)[C@@H](CCCCNC(=O)[C@H](Cc2ccccc2)NS(=O)(=O)c2ccc3ccccc3c2)C(=O)O)cc1` [Example 19, Nα-Isobutyl-Nα-(4-methylbenzenesulfonyl)-Nε-[N′α-(2-naphthylsulfonyl)-L-phenylalanyl]-L-lysine]: the Ki stood at 11 nM.
Still for that read-out and setting: the figure for `Cc1ccc(CSC[C@H](N)C(=O)NCCCC[C@@H](C(=O)O)N(CC(C)C)S(=O)(=O)c2ccc(C)cc2)cc1` [Example 90, Nα-Isobutyl-Nα-(4-methylbenzenesulfonyl)-Nε-[S-(4-methylbenzyl)-L-cysteinyl]-L-lysine] is 29 nM; for `CC(C)CN([C@H](CO)CCCCNC(=O)[C@H](Cc1c[nH]c2ccccc12)NC(=O)CC(C)(C)C)S(=O)(=O)c1ccc(N)cc1` [Example 185, (2S,2′S) 2-N-(4-Aminobenzenesulfonyl)-2-N-isobutyl-6-N-(N′α-tert-butylacetyl-S-tryptophanyl)-2,6-diaminohexanol] it is 3.1 nM; for `Cc1ccc(S(=O)(=O)N(CC(C)C)[C@H](CO)CCCCNC(=O)[C@H](Cc2ccc(F)cc2)NC(=O)OC(C)(C)C)cc1` [Example 140, (2S,2′S) 2-N-Isobutyl-2-N-(4-methylbenzenesulfonyl)-6-N-(N′α-tert-butoxycarbonyl-S-4-fluorophenylalanyl)-2,6-diaminohexanol] it is 4.2 nM.
In turn, `COc1ccc(S(=O)(=O)N(CC(C)C)[C@H](CO)CCCCNC(=O)[C@H](Cc2c[nH]c3ccccc23)NC(=O)C(C)(C)C)cc1` [Example 148, (2S,2′S) 2-N-Isobutyl-2-N-(4-methoxybenzenesulfonyl)-6-N-(N′α-pivaloyl-S-tryptophanyl)-2,6-diaminohexanol] had a Ki of 1.9 nM.
On the same count and under the same terms, as for `Cc1ccc(S(=O)(=O)N(CC(C)C)[C@@H](CCCCNC(=O)[C@H](Cc2ccccc2)NC(=O)NCCO)C(=O)O)cc1` [Example 199, Nα-Isobutyl-Nα-(4-methylbenzenesulfonyl)-Nε-(N′α-ethanolaminocarbonyl-L-phenylalanyl)-L-lysine], the figure is 2.2 nM.

The same test, now with this note: Anti-protease activity of Ne-amino acid substituted L-lysine derivatives and analogs of formula I; read-out: Ki.
For the compound “Nα-Isobutyl-Nα-(4-methylbenzenesulfonyl)-Nε-[N′α-(4-bromobenzenesulfonyl)-L-phenylalanyl]-L-lysine [Example 20]”, the Ki stood at 19 nM.
As for “Nα-Isobutyl-Nα-(4-methylbenzenesulfonyl)-Nε-[N′α-(4-methylbenzenesulfonyl)-L-phenylalanyl-N-cyanoamidine]-L-lysine [Example 98]”, the Ki is 5.1 nM.

The same test, now with this note: Table 1, compounds of formula I; read-out: Ki (anti-protease activity).
As to `Cc1ccc(S(=O)(=O)N(CC(C)C)[C@H](CO)CCCCNC(=O)CN(CCc2ccccc2)c2ccccc2)cc1` [Example 160, (2S) 2-N-Isobutyl-2-N-(4-methylbenzenesulfonyl)-6-N-(N′α-phenethyl-N′α-phenylglycyl]-2,6-diaminohexanol], the Ki was 52 nM.

Values taken from US6610689B2, “HIV protease inhibitors based on amino acid derivatives” (priority 2001, dated 2003).
